From patent US10995067B2, “Treatment of Fabry disease” (Academia Sinica, priority 2016, dated 2021)

How the values were obtained:
[1] = target: T1, α-mannosidase from Jack beans (Canavalia ensiformis, UniProt C0HJB3); test: Glycosidase activity assay: α-mannosidase; assay type: biochemical; details: inhibitors tested at 100 μM
T1 construct: purchased
T1 sequence (C0HJB3 1-981): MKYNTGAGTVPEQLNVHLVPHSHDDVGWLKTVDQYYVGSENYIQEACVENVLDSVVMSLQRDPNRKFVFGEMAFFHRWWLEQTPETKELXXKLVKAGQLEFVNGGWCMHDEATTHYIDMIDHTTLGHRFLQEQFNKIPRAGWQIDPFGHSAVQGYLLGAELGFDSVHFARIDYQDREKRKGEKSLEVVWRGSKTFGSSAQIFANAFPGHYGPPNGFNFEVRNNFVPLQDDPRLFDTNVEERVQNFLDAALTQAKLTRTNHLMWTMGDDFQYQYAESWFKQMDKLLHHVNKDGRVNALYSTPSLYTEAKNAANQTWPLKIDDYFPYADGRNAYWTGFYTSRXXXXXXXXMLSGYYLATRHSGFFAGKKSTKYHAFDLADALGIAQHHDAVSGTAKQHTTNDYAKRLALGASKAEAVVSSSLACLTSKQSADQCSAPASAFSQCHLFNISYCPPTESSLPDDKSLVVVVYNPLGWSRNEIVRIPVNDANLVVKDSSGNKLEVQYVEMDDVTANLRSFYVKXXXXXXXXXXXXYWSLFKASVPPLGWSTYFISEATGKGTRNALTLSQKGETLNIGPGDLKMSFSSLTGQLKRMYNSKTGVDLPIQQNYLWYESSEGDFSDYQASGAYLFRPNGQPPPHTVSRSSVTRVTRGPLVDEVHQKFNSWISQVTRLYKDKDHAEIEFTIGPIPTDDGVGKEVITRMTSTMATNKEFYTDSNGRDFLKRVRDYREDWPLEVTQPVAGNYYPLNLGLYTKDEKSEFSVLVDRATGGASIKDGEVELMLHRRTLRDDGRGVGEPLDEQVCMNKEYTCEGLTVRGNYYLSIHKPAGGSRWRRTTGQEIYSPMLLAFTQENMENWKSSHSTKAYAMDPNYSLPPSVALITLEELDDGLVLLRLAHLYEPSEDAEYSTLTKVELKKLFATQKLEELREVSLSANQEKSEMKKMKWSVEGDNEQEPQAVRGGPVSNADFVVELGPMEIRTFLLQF

[2] = tested on: Wild-type human lymphocytes (08C0058); test: Cytotoxicity assay using human lymphocytes (alamarBlue); assay type: cell-based; details: concentration up to 200 μM; data not shown
Protocol: Wild-type human lymphocytes (08C0058) were seeded in 96-well plates at a number of 50,000 cells/well. […] All compounds were dissolved in DMSO or H2O and control experiments were performed with DMSO. Cells were incubated at 37° C. in 5% CO2 for 48-72 h. Then, 10λ alamarBlue was added to cells suspended in medium, and the mixture was incubated for additional 3-5 hrs at 37° C. in 5% CO2.

[3] = target: T2, α-galactosidase from coffee beans (Coffea arabica, UniProt Q42656); test: Glycosidase activity assay: α-galactosidase (coffee beans); assay type: biochemical; details: inhibitors tested at 100 μM
T2 construct: purchased

[4] = target: T3, β-galactosidase from human lysate (lysed human lymphocytes) (Homo sapiens, UniProt P16278); test: Glycosidase activity assay: β-galactosidase; assay type: biochemical; details: inhibitors tested at 100 μM
T3 construct: endogenous in cells; host or cells: normal human lymphocytes (lysate, 62 μg/ml)
T3 sequence (P16278 29-677): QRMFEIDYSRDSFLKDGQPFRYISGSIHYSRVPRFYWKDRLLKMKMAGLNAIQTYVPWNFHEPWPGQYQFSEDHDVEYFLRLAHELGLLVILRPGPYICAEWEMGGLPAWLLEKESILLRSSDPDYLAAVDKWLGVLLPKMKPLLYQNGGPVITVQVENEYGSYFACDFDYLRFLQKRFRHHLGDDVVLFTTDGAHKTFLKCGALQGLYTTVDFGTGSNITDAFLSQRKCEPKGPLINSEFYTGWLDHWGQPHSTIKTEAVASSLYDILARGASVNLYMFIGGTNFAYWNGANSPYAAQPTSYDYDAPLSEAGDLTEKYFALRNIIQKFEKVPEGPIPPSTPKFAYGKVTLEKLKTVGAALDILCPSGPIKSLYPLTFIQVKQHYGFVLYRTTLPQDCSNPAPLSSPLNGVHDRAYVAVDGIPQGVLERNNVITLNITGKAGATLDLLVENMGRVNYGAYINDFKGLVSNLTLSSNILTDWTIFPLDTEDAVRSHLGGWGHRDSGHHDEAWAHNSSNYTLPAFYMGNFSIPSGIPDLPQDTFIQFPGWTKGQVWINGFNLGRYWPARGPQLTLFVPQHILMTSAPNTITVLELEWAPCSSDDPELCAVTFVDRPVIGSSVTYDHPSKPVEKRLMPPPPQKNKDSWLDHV

[5] = target: T4, rh-α-Gal A (recombinant human α-galactosidase A) (Homo sapiens, UniProt P06280); test: biochemical; details: read-out: Inhibition activity (%) rh-α-Gal A
T4 sequence (P06280 32-429): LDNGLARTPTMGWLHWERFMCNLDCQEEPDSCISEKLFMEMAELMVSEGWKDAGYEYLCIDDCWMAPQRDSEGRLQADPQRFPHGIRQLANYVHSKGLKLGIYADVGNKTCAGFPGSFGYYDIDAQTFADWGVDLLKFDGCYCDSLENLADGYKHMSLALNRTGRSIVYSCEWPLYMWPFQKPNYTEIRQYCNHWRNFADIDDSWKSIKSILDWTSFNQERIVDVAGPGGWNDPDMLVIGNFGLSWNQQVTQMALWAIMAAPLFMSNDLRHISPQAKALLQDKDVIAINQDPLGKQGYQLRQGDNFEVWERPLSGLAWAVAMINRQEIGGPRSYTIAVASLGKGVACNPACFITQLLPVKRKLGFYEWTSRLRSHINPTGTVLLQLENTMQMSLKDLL
Protocol: Libraries (20 μL) were diluted to give the final concentration of 20 μM, mixed with substrate 4-methylberiilyl α-D-galactopyranoside (20 μL) and recombinant human alpha-galactosidase (10 μL) in pH 4.6 buffer (50 μL), then assay was carried out at 37° C. for 15 min. […] The control group was a mixture of HBTU, DIEA, acid libraries (in total 20 μL), substrate (20 μL), buffer (50 μL) and enzyme (10 μL) excluded the amide products. Blank was a solution of substrate (20 μL) and enzyme (10 μL) in pH 4.6 buffer (70 μL). Inhibition was performed as relative enzyme activity to control.

T2 sequence (Q42656 16-378): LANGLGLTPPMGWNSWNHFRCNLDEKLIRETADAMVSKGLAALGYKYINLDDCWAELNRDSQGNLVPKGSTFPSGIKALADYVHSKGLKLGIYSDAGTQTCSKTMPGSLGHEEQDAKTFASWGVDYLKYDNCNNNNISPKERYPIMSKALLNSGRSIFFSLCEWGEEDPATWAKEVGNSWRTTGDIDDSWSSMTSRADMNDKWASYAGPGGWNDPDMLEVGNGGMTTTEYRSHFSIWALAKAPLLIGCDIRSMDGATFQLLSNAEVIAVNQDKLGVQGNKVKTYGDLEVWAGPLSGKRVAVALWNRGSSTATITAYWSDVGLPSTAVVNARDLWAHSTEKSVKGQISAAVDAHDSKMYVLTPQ

O=C(CCCCC1CCCCC1)NC[C@H]1N[C@H](CO)[C@H](O)[C@@H]1O [Compound 33]
inhibition at 100 µM [1]: 36%
toxic effect in cell culture [2]: no toxic effect
inhibition at 100 µM [3]: 94%
Inhibition activity (%) β-galactosidase [4]: No inhibition
inhibition at 100 µM [5]: 97%
